Key:
Test in all cases: relative viability (nuclei count vs DMSO), 5 days (fraction); higher = more cells survive
Bexarotene + Trametinib = compound: C=C(c1ccc(C(=O)O)cc1)c1cc2c(cc1C)C(C)(C)CCC2(C)C [Bexarotene] + CC(=O)Nc1cccc(-n2c(=O)n(C3CC3)c(=O)c3c(Nc4ccc(I)cc4F)n(C)c(=O)c(C)c32)c1 [Trametinib] (partner 0.02 µM)
Method in brief: (§1)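 Values are medians from duplicate plates. Each reflects relative viability, defined as the nuclei count of treated wells over that of vehicle wells. Lung cancer cell lines in 1536-well plates were pin-tool dosed one day after seeding with one drug alone or with a fixed anchor-drug dose plus five library-drug doses (not always all listed) in √10 steps, then fixed, stained and imaged at 4× after 5 days.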

Bexarotene + Bortezomib = compound: C=C(c1ccc(C(=O)O)cc1)c1cc2c(cc1C)C(C)(C)CCC2(C)C [Bexarotene] + CC(C)C[C@H](NC(=O)[C@H](Cc1ccccc1)NC(=O)c1cnccn1)B(O)O [Bortezomib] (partner 0.002 µM)
Method in brief: as §1

Bexarotene + Pictilisib = compound: C=C(c1ccc(C(=O)O)cc1)c1cc2c(cc1C)C(C)(C)CCC2(C)C [Bexarotene] + CS(=O)(=O)N1CCN(Cc2cc3nc(-c4cccc5[nH]ncc45)nc(N4CCOCC4)c3s2)CC1 [Pictilisib] (partner 1 µM)
Method in brief: as §1

Bexarotene + Olaparib = compound: C=C(c1ccc(C(=O)O)cc1)c1cc2c(cc1C)C(C)(C)CCC2(C)C [Bexarotene] + O=C(c1cc(Cc2n[nH]c(=O)c3ccccc23)ccc1F)N1CCN(C(=O)C2CC2)CC1 [Olaparib] (partner 8 µM)
Method in brief: as §1

| Cell Line | relative viability (Bexarotene + Trametinib; first compound 0.08 µM) | relative viability (Bexarotene + Trametinib; first compound 0.253 µM) | relative viability (Bexarotene + Trametinib; first compound 0.8 µM) | relative viability (Bexarotene + Trametinib; first compound 2.53 µM) | relative viability (Bexarotene + Trametinib; first compound 8 µM) | relative viability (Bexarotene + Bortezomib; first compound 0.08 µM) | relative viability (Bexarotene + Bortezomib; first compound 0.253 µM) | relative viability (Bexarotene + Bortezomib; first compound 0.8 µM) | relative viability (Bexarotene + Bortezomib; first compound 2.53 µM) | relative viability (Bexarotene + Bortezomib; first compound 8 µM) | relative viability (Bexarotene + Pictilisib; first compound 0.08 µM) | relative viability (Bexarotene + Pictilisib; first compound 0.253 µM) | relative viability (Bexarotene + Pictilisib; first compound 0.8 µM) | relative viability (Bexarotene + Pictilisib; first compound 2.53 µM) | relative viability (Bexarotene + Pictilisib; first compound 8 µM) | relative viability (Bexarotene + Olaparib; first compound 0.08 µM) | relative viability (Bexarotene + Olaparib; first compound 0.253 µM) | relative viability (Bexarotene + Olaparib; first compound 0.8 µM) | relative viability (Bexarotene + Olaparib; first compound 2.53 µM) | relative viability (Bexarotene + Olaparib; first compound 8 µM) |
| --- | --- | --- | --- | --- | --- | --- | --- | --- | --- | --- | --- | --- | --- | --- | --- | --- | --- | --- | --- | --- |
| 201T | 0.751 | 0.724 | 0.713 | 0.704 | 0.643 | 1.08 | 1.1 | 1.07 | 1.08 | 1.05 | 0.745 | 0.631 | 0.612 | 0.639 | 0.596 | 0.837 | 0.823 | 0.777 | 0.919 | 0.709 |
| A549 | – | – | – | – | – | – | – | – | – | – | 0.59 | 0.476 | 0.571 | 0.507 | 0.48 | 0.245 | 0.388 | 0.35 | 0.291 | 0.3 |
| A-427 | 0.726 | 0.643 | 0.629 | 0.517 | 0.599 | 0.933 | 0.923 | 0.79 | 0.897 | 0.932 | 0.79 | 0.667 | 0.613 | 0.537 | 0.569 | 0.716 | 0.781 | 0.654 | 0.743 | 0.728 |
| ABC-1 | – | – | – | – | – | 0.3 | 0.311 | 0.269 | 0.291 | 0.336 | 0.662 | 0.63 | 0.606 | 0.697 | 0.615 | 0.827 | 0.839 | 0.478 | – | 0.631 |
| BEN | 0.994 | 1.02 | 0.943 | 0.804 | 0.997 | 0.905 | 0.599 | 0.672 | 0.496 | 0.649 | 0.674 | 0.576 | 0.495 | 0.452 | 0.571 | 1.05 | 0.942 | 1 | 0.853 | 1.06 |
| CAL-12T | 0.349 | 0.286 | 0.319 | 0.233 | 0.319 | 1.02 | – | 0.849 | – | 0.816 | 0.333 | – | 0.396 | – | 0.361 | 0.728 | 0.64 | 0.658 | 0.648 | 0.67 |
| COR-L23 | 0.747 | 0.72 | 0.501 | 0.553 | 0.547 | 1.06 | 0.989 | 0.898 | 0.933 | 0.892 | 0.735 | 0.759 | 0.5 | 0.67 | 0.52 | 0.344 | 0.365 | 0.323 | 0.373 | 0.301 |
| COR-L 105 | 0.48 | 0.426 | 0.478 | 0.451 | 0.465 | 0.98 | 0.98 | 0.988 | 0.965 | 0.909 | 0.473 | 0.397 | 0.331 | 0.385 | 0.39 | 0.698 | 0.743 | 0.898 | 0.784 | 0.913 |
| Calu-6 | – | – | – | – | – | 1 | 0.915 | 0.904 | 0.922 | 1.27 | 0.944 | 0.926 | 0.911 | 1.11 | 0.884 | 0.638 | 0.563 | 0.494 | 0.606 | 0.568 |
| ChaGo-K-1 | 1.02 | 1.02 | 0.978 | 1.05 | 0.932 | 1.04 | 1.03 | 1.05 | – | 1.06 | 0.902 | 0.679 | 0.875 | – | 0.801 | 0.411 | 0.413 | 0.408 | 0.395 | 0.42 |
| EBC-1 | – | – | – | – | – | 0.63 | 0.541 | 0.415 | 0.555 | 0.442 | 0.395 | 0.481 | 0.476 | 0.474 | 0.475 | 0.771 | 0.713 | 0.588 | 0.701 | 0.715 |
| EKVX | 0.291 | 0.359 | 0.355 | 0.372 | 0.295 | 0.999 | 1.28 | 1.07 | 1.1 | 1.09 | 0.352 | 0.432 | 0.446 | 0.357 | 0.404 | 0.838 | 0.993 | 0.947 | 0.946 | 0.948 |
| EMC-BAC-2 | 1.08 | 0.901 | 0.996 | – | 0.88 | 1.24 | 1.03 | 0.97 | 1.05 | 1.03 | 0.618 | 0.561 | 0.52 | 0.554 | 0.469 | 0.522 | 0.514 | 0.504 | – | 0.515 |
| EPLC-272H | 0.318 | 0.277 | 0.285 | 0.322 | 0.314 | 0.968 | 0.875 | 0.538 | 0.776 | 0.822 | 0.373 | 0.308 | 0.33 | 0.298 | 0.352 | 0.824 | 0.773 | 0.641 | 0.758 | 0.845 |
| H3255 | 0.715 | 0.759 | 0.615 | 0.626 | 0.674 | 0.733 | 0.919 | 0.784 | 0.65 | 0.856 | 0.574 | 0.504 | 0.607 | 0.493 | 0.528 | 0.603 | 0.692 | 0.659 | 0.642 | 0.654 |
| HARA | 0.902 | 0.895 | 0.642 | 0.989 | 0.602 | 1.16 | 1.04 | 1.02 | 1.02 | 1.03 | 0.407 | 0.317 | 0.377 | 0.32 | 0.41 | 0.752 | 0.838 | 0.925 | 0.731 | 0.715 |
| HCC-15 | 0.372 | 0.431 | 0.371 | 0.371 | 0.365 | 1.06 | 1.13 | 1.05 | 0.959 | 1.01 | 0.798 | 0.743 | 0.656 | 0.644 | 0.632 | 0.666 | 0.703 | 0.721 | 0.654 | 0.689 |
| HCC-44 | 1.02 | 1.03 | 0.884 | 0.899 | 1.08 | 0.997 | 1 | 0.851 | 0.823 | 0.822 | 0.661 | 0.663 | 0.479 | 0.579 | 0.459 | 1.07 | 1.11 | 1.05 | 1.03 | 1.05 |

— the supplement of paper PMC10307832
